These results are taken from patent US20100249076A1, “PRODRUGS OF 9-AMINOMETHYL TETRACYCLINE COMPOUNDS” (priority 2003, published 2010).

Where two headings read alike, the source gives them in different places.

Format in all cases: in vivo
Assay [1] deals with S. pneumoniae 157E (tet^S). The assay is described as follows: Oral efficacy screen, murine model of S. pneumoniae systemic infection (survival). The note with it: Streptococcus pneumoniae, 1 h, read-out: % survival at 10 (po) mg/kg. The protocol: The following example was used to assess the oral bioavailability of compounds of the invention in an oral efficacy screen in murine models of infection. The compounds were screened by administering a single 10 mg/kg oral dose to mice 1 hour after administration of a lethal intraperitoneal inoculum of S. pneumoniae 157E (tet^S).
In Table 1 below, compounds with a survival rate of ≧80% are indicated with ‘***”; compounds with a survival rate of ≧60% are indicated with ‘**” and compounds with a survival rate of […] are indicated with ‘*’. Compounds with a survival rate of less than 20% are indicated with ‘−’.

A further assay relates to S. pneumoniae 157E. The experiment in a line: Oral efficacy (PD50) in mice with acute systemic infection by susceptible S. pneumoniae. Particulars: Streptococcus pneumoniae, read-out: PD50, S. pneumoniae 157E. The protocol: (§1) Relative to linezolid, the PD50 values for a number of the compounds were within an 2-fold range against the resistant organism. Compounds with PD50 values of less than 7 mg/kg/dose are indicated with “***.” Compounds with PD50 values of less than 14 mg/kg/dose but greater than 7 mg/kg/dose are indicated with “**.” Compounds with PD50 values of greater than 14 mg/kg/dose, but less than 21 mg/kg/dose are indicated with “*.” Compounds with PD50 values greater than 21 mg/kg/dose are indicated with “−”

The subject of a further assay is S. pneumoniae 700905. The assay is described as follows: Oral efficacy (PD50) in mice with acute systemic infection by resistant S. pneumoniae. Particulars: Streptococcus pneumoniae, resistant S. pneumoniae 700905. The protocol:
as §1

[2] abbreviates: mice, oral, acute systemic infection, susceptible S. pneumoniae 157E.

With `CN(C)c1cc(CN(CC(C)(C)C)C(=O)OCOC(=O)C(C)(C)C)c(O)c2c1C[C@H]1C[C@H]3[C@H](N(C)C)C(O)=C(C(N)=O)C(=O)[C@@]3(O)C(O)=C1C2=O` [A], in assay [1], the responders at 10 mg/kg was > 80%. Moreover, the ED50 in the assay on S. pneumoniae 157E (157E, po) was < 7 mg/kg; in the assay with S. pneumoniae 700905, < 7 mg/kg.
Regarding `CC1(C)S[C@@H]2[C@H](NC(=O)[C@H](N)c3ccccc3)C(=O)N2[C@H]1C(=O)O` [Ampicillin, reference compound], in the assay with S. pneumoniae 157E (setting [2]), the ED50 fell in the range of 14 to 21 mg/kg.
As for `CC[C@H]1OC(=O)[C@H](C)[C@@H](O[C@H]2C[C@@](C)(OC)[C@@H](O)[C@H](C)O2)[C@H](C)[C@@H](O[C@@H]2O[C@H](C)C[C@H](N(C)C)[C@H]2O)[C@](C)(O)C[C@@H](C)CN(C)[C@H](C)[C@@H](O)[C@]1(C)O` [Azithromycin, reference compound], in the assay with S. pneumoniae 157E (setting [2]), the ED50 is 7 to 14 mg/kg.
Regarding `CC(=O)OCOC(=O)N(Cc1cc(N(C)C)c2c(c1O)C(=O)C1=C(O)[C@]3(O)C(=O)C(C(N)=O)=C(O)[C@@H](N(C)C)[C@@H]3C[C@@H]1C2)CC(C)(C)C` [B], the responders at 10 mg/kg in assay [1] was > 80%. Further, the ED50 lay in the range of 7 to 14 mg/kg in the assay on S. pneumoniae 157E (157E, po) and 7 to 14 mg/kg with S. pneumoniae 700905.
For the molecule `CN(C)c1cc(CN(CC(C)(C)C)C(=O)OCOC(=O)c2ccccc2)c(O)c2c1C[C@H]1C[C@H]3[C@H](N(C)C)C(O)=C(C(N)=O)C(=O)[C@@]3(O)C(O)=C1C2=O` [D], the responders at 10 mg/kg in assay [1] was > 0%. In the assay on S. pneumoniae 157E (157E, po), the ED50 was < 7 mg/kg.
Turning to `C[C@H]1c2cccc(O)c2C(=O)C2=C(O)[C@]3(O)C(=O)C(C(N)=O)=C(O)[C@@H](N(C)C)[C@@H]3[C@@H](O)[C@@H]21` [Doxycycline, reference compound], the ED50 in the assay on S. pneumoniae 157E (setting [2]) was < 7 mg/kg.
Consider `CN(C)c1cc(CN(CC(C)(C)C)C(=O)OCOC(=O)CCc2ccccc2)c(O)c2c1C[C@H]1C[C@H]3[C@H](N(C)C)C(O)=C(C(N)=O)C(=O)[C@@]3(O)C(O)=C1C2=O` [E], for which the responders at 10 mg/kg in assay [1] was > 0%.
In the case of `CN(C)c1cc(CN(CC(C)(C)C)C(=O)OCOC(=O)C2CCCCC2)c(O)c2c1C[C@H]1C[C@H]3[C@H](N(C)C)C(O)=C(C(N)=O)C(=O)[C@@]3(O)C(O)=C1C2=O` [F], the responders at 10 mg/kg in assay [1] was > 60%. Moreover, the ED50 in the assay on S. pneumoniae 157E (157E, po) is < 7 mg/kg; with S. pneumoniae 700905 it was 14 to 21 mg/kg.
Turning to `COc1ccc(C(=O)OCOC(=O)N(Cc2cc(N(C)C)c3c(c2O)C(=O)C2=C(O)[C@]4(O)C(=O)C(C(N)=O)=C(O)[C@@H](N(C)C)[C@@H]4C[C@@H]2C3)CC(C)(C)C)cc1` [G], in assay [1], the responders at 10 mg/kg was > 60%. For the same molecule, in the assay with S. pneumoniae 157E (157E, po), the ED50 lay within 7 to 14 mg/kg.
Take `CN(C)c1cc(CN(CC(C)(C)C)C(=O)OCOC(=O)CC(C)(C)C)c(O)c2c1C[C@H]1C[C@H]3[C@H](N(C)C)C(O)=C(C(N)=O)C(=O)[C@@]3(O)C(O)=C1C2=O` [H]: in assay [1], the responders at 10 mg/kg is > 80%. Moreover, the ED50 with S. pneumoniae 157E (157E, po) is < 7 mg/kg; with S. pneumoniae 700905, 7 to 14 mg/kg.
Regarding `CC(OC(=O)N(Cc1cc(N(C)C)c2c(c1O)C(=O)C1=C(O)[C@]3(O)C(=O)C(C(N)=O)=C(O)[C@@H](N(C)C)[C@@H]3C[C@@H]1C2)CC(C)(C)C)OC(=O)C(C)(C)C` (some centres unmarked) [I], in assay [1], the responders at 10 mg/kg is > 80%. For the same molecule, the ED50 in the assay with S. pneumoniae 700905 lay in the range of 7 to 14 mg/kg.
On to `COCC(=O)OCOC(=O)N(Cc1cc(N(C)C)c2c(c1O)C(=O)C1=C(O)[C@]3(O)C(=O)C(C(N)=O)=C(O)[C@@H](N(C)C)[C@@H]3C[C@@H]1C2)CC(C)(C)C` [J], for which, in assay [1], the responders at 10 mg/kg was > 0%.
For the molecule `COCCC(=O)OCOC(=O)N(Cc1cc(N(C)C)c2c(c1O)C(=O)C1=C(O)[C@]3(O)C(=O)C(C(N)=O)=C(O)[C@@H](N(C)C)[C@@H]3C[C@@H]1C2)CC(C)(C)C` [K], the responders at 10 mg/kg in assay [1] is > 80%. The ED50 is < 7 mg/kg with S. pneumoniae 157E (157E, po) and 14 to 21 mg/kg in the assay on S. pneumoniae 700905.
For the molecule `COCCOCC(=O)OCOC(=O)N(Cc1cc(N(C)C)c2c(c1O)C(=O)C1=C(O)[C@]3(O)C(=O)C(C(C)=O)=C(O)[C@@H](N(C)C)[C@@H]3C[C@@H]1C2)CC(C)(C)C` [L], the responders at 10 mg/kg in assay [1] is > 60%.
`CC(=O)NC[C@H]1CN(c2ccc(N3CCOCC3)c(F)c2)C(=O)O1` [Linezolid, reference compound]: the ED50 is < 7 mg/kg in the assay with S. pneumoniae 157E (setting [2]) and 7 to 14 mg/kg with S. pneumoniae 700905.
As for `CN(C)c1cc(CN(CC(C)(C)C)C(=O)OCOC(=O)c2ccc(C(F)(F)F)cc2)c(O)c2c1C[C@H]1C[C@H]3[C@H](N(C)C)C(O)=C(C(N)=O)C(=O)[C@@]3(O)C(O)=C1C2=O` [M], the responders at 10 mg/kg in assay [1] was > 80%.
Turning to `CN(C)c1ccc(O)c2c1C[C@H]1C[C@H]3[C@H](N(C)C)C(O)=C(C(N)=O)C(=O)[C@@]3(O)C(O)=C1C2=O` [Minocycline, reference compound], the ED50 in the assay with S. pneumoniae 157E (setting [2]) is 7 to 14 mg/kg.
As to `CN(C)c1cc(CN(CC(C)(C)C)C(=O)OCOC(=O)c2c(F)cccc2F)c(O)c2c1C[C@H]1C[C@H]3[C@H](N(C)C)C(O)=C(C(N)=O)C(=O)[C@@]3(O)C(O)=C1C2=O` [N], the responders at 10 mg/kg in assay [1] was > 80%. In the assay on S. pneumoniae 700905, the ED50 is 14 to 21 mg/kg.
For `CN(C)c1cc(CN(CC(C)(C)C)C(=O)OCOC(=O)Cc2ccccc2)c(O)c2c1C[C@H]1C[C@H]3[C@H](N(C)C)C(O)=C(C(N)=O)C(=O)[C@@]3(O)C(O)=C1C2=O` [O] the same measures were > 60% and 7 to 14 mg/kg.
For `CCC(=O)OCOC(=O)N(Cc1cc(N(C)C)c2c(c1O)C(=O)C1=C(O)[C@]3(O)C(=O)C(C(N)=O)=C(O)[C@@H](N(C)C)[C@@H]3C[C@@H]1C2)CC(C)(C)C` [P] the same measures were > 80% and 14 to 21 mg/kg.
As for `CCCC(=O)OCOC(=O)N(Cc1cc(N(C)C)c2c(c1O)C(=O)C1=C(O)[C@]3(O)C(=O)C(C(N)=O)=C(O)[C@@H](N(C)C)[C@@H]3C[C@@H]1C2)CC(C)(C)C` [Q], in assay [1], the responders at 10 mg/kg was > 80%. The same molecule showed an ED50 with S. pneumoniae 700905 of 14 to 21 mg/kg.
In the same order, the values of `CC(C)C(=O)OCOC(=O)N(Cc1cc(N(C)C)c2c(c1O)C(=O)C1=C(O)[C@]3(O)C(=O)C(C(N)=O)=C(O)[C@@H](N(C)C)[C@@H]3C[C@@H]1C2)CC(C)(C)C` [R] are > 80% and 7 to 14 mg/kg.
